Measurements taken from PubChem BioAssay (NCI).
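Method: 48-hour compound exposure of cells in 96-well plates, five concentrations, linear interpolation of endpoints. At the TGI there is no net growth.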

Experiments:
Assay in all cases: NCI tumour cell line growth inhibition, 48 h
A498 renal = test system: A498 renal
A549 NSCLC = test system: A549 NSCLC
CAKI-1 renal = test system: CAKI-1 renal
CCRF-CEM leukemia = test system: CCRF-CEM leukemia
COLO 205 colon = test system: COLO 205 colon
DLD-1 colon = test system: DLD-1 colon
DMS 114 small cell lung = test system: DMS 114 small cell lung
DMS 273 small cell lung = test system: DMS 273 small cell lung
EKVX NSCLC = test system: EKVX NSCLC
HCC-2998 colon = test system: HCC-2998 colon
HCT-116 colon = test system: HCT-116 colon
HCT-15 colon = test system: HCT-15 colon
HL-60(TB) leukemia = test system: HL-60(TB) leukemia
HOP-62 NSCLC = test system: HOP-62 NSCLC
HOP-92 NSCLC = test system: HOP-92 NSCLC
HT29 colon = test system: HT29 colon
IGROV1 ovarian = test system: IGROV1 ovarian
K-562 leukemia = test system: K-562 leukemia
KM12 colon = test system: KM12 colon
KM20L2 colon = test system: KM20L2 colon
LOX IMVI melanoma = test system: LOX IMVI melanoma
M19-MEL melanoma = test system: M19-MEL melanoma
MALME-3M melanoma = test system: MALME-3M melanoma
MCF7 breast = test system: MCF7 breast
MOLT-4 leukemia = test system: MOLT-4 leukemia
NCI-H226 lung = test system: NCI-H226 lung
NCI-H23 lung = test system: NCI-H23 lung
NCI-H460 lung = test system: NCI-H460 lung
NCI-H522 lung = test system: NCI-H522 lung
NCI/ADR-RES ovarian = test system: NCI/ADR-RES ovarian
OVCAR-3 ovarian = test system: OVCAR-3 ovarian
OVCAR-4 ovarian = test system: OVCAR-4 ovarian
OVCAR-5 ovarian = test system: OVCAR-5 ovarian
OVCAR-8 ovarian = test system: OVCAR-8 ovarian
P388 leukemia = test system: P388 leukemia
P388/ADR leukemia = test system: P388/ADR leukemia
RPMI-8226 leukemia = test system: RPMI-8226 leukemia
RXF 393 renal = test system: RXF 393 renal
SF-268 CNS = test system: SF-268 CNS
SF-295 CNS = test system: SF-295 CNS
SF-539 CNS = test system: SF-539 CNS
SK-MEL-2 melanoma = test system: SK-MEL-2 melanoma
SK-MEL-28 melanoma = test system: SK-MEL-28 melanoma
SK-MEL-5 melanoma = test system: SK-MEL-5 melanoma
SK-OV-3 ovarian = test system: SK-OV-3 ovarian
SN12C renal = test system: SN12C renal
SN12K1 renal = test system: SN12K1 renal
SNB-19 CNS = test system: SNB-19 CNS
SNB-75 CNS = test system: SNB-75 CNS
SNB-78 CNS = test system: SNB-78 CNS
SW-620 colon = test system: SW-620 colon
U251 CNS = test system: U251 CNS
UACC-257 melanoma = test system: UACC-257 melanoma
UACC-62 melanoma = test system: UACC-62 melanoma
UO-31 renal = test system: UO-31 renal
XF 498 CNS = test system: XF 498 CNS
786-0 renal = test system: 786-0 renal
ACHN renal = test system: ACHN renal
HOP-18 NSCLC = test system: HOP-18 NSCLC
LXFL 529 NSCLC = test system: LXFL 529 NSCLC
M14 melanoma = test system: M14 melanoma
RXF-631 renal = test system: RXF-631 renal
SR leukemia = test system: SR leukemia
TK-10 renal = test system: TK-10 renal

Measured: TGI

Nc1n[nH]c(=O)[nH]1
not listed: 786-0 renal | ACHN renal | HOP-18 NSCLC | LXFL 529 NSCLC | M14 melanoma | RXF-631 renal | SR leukemia | TK-10 renal
> 100 µM: all other assays above

CCOC(=O)C1=C(C)N(c2ccccc2)C2=C(C(=O)N(c3ccccc3)C2c2ccccc2)C1c1ccccc1 (stereo not drawn)
not listed: A498 renal | HCT-15 colon | MCF7 breast | NCI/ADR-RES ovarian | P388 leukemia | P388/ADR leukemia | SN12K1 renal
> 100 µM: all other assays above
